Experiments:
[1] = target: T1, human recombinant L1196M ALK kinase domain (amino acids 1093-1411) (Homo sapiens, UniProt Q9UM73, L1196M); assay: L1196M mutant ALK enzyme assay (microfluidic mobility shift); assay type: biochemical; settings: ATP 60 μM, 0.5 nM enzyme, competitive inhibition fit; read-out: L1196M ALK enzyme assay (Ki)
T1 construct: ALK kinase domain (amino acids 1093-1411); made in house

[2] = target: T2, L1196M EML4-ALK (NIH-3T3 EML4-ALK v1 L1196M cells) (Homo sapiens, UniProt Q9UM73, L1196M); assay: Cellular phospho-ALK (Tyr1604) ELISA assay for L1196M EML4-ALK; assay type: cell-based; settings: NIH-3T3 EML4-ALK v1 L1196M cells, 1 hour, phospho-ALK (Tyr1604); read-out: ELISA assay for L1196M EML4-ALK (IC50)
T2 construct: expressed in transfected cells; the other entry of the earlier key: EML4 (Q9HC35, Echinoderm microtubule-associated protein-like 4)
Description: Cellular Phospho-ALK (Tyr1604) ELISA Assay for EML4-ALK:
The cells were maintained at 37° C. in a 5% CO2 incubator in DMEM (Invitrogen, Carlsbad, Calif.) medium supplemented with 1% L-glutamine, 1% penicillin and streptomycin, 1 ug/ml puromycin and 10% new born calf serum (NCS) in T-75 flasks.
Cells were washed with PBS and re-suspended in DMEM medium supplemented with 0.5% NCS and 1% pen/strep and seeded into 96-well plates at density of 20,000 cells/well/100 μl and incubated in the incubator at 37° C. and 5% CO2. After 20 hours of incubation, 100 μl of assay media (DMEM) in presence of designated PF-compounds concentrations or controls (DMSO) were added into plates and incubated for 1 hour in the incubator. Media was then removed and lysis buffer, containing phosphatase inhibitors and phenylmethanesulfonyl fluoride (PMSF), was added to wells and shaken at 4° C. for 30 minutes to generate protein lysates.
A phospho-ALK (Tyr1604) rabbit antibody was coated onto the 96-well microplates. 50 μl of cell lysates were added to the antibody coated plate and incubated at room temperature for 2 hours. Following extensive washing with 0.1% Tween 20 in PBS to remove unbound materials, ALK mouse mAb was added to detect captured phospho-ALK (Tyr1604) and phospho-ALK fusion proteins. Anti-mouse IgG, HRP-linked antibody was then used to recognize the bound detection antibody. Finally, the chemiluminescent reagent was added and incubated for 10 minutes for signal development. The assay plates were read in the Envision plate reader in the luminescent mode. IC50 values were calculated by a concentration-response curve fitting using a four-parameter analytic method.

[3] = target: T3, human recombinant wild-type ALK kinase domain (amino acids 1093-1411) (Homo sapiens, UniProt Q9UM73); assay: Wild-type ALK enzyme assay (microfluidic mobility shift); assay type: biochemical; settings: ATP 60 μM, competitive inhibition fit, read-out: WT ALK enzyme assay (Ki)
T3 construct: ALK kinase domain (amino acids 1093-1411); made in house
Description: The reactions were incubated for 1 h at room temperature, stopped by the addition of 0.1 M EDTA, pH 8, and the extent of reactions (˜15-20% conversion with no inhibitor) was determined after electrophoretic separation of the fluorescently labeled peptide substrate and phosphorylated product on an LabChip EZ Reader II (Caliper Life Sciences, Hopkinton, Mass.).

[4] = target: T4, WT EML4-ALK (NIH-3T3 EML4-ALK wt v1 cells) (Homo sapiens, UniProt Q9UM73); assay: Cellular phospho-ALK (Tyr1604) ELISA assay for WT EML4-ALK; assay type: cell-based; settings: 1 hour, read-out: ELISA assay for WT EML4-ALK (IC50)
T4 construct: expressed in transfected cells; the other entry of the earlier key: EML4 (Q9HC35, Echinoderm microtubule-associated protein-like 4)

Compound | Ki [1] | IC50 [2] | Ki [3] | IC50 [4]
CC1Oc2nc(cnc2N)-c2c(nn(C)c2C#N)CN(C)C(=O)c2ccc(F)cc21 (single isomer, unassigned) [Example 32, 7-amino-12-fluoro-2,10,16-trimethyl-15-oxo-10,15,16,17-tetrahydro-2H-8,4-(azeno)pyrazolo[4,3-h][2,5,11]benzoxadiazacyclotetradecine-3-carbonitrile] | < 0.1 nM | 5.36 nM | < 0.2 nM | 0.841 nM
CC1Oc2cc(cnc2N)-c2c(nn(C)c2C#N)CN(C)C(=O)c2c(F)cccc21 (single isomer, unassigned) [Example 52, 7-amino-14-fluoro-2,10,16-trimethyl-15-oxo-10,15,16,17-tetrahydro-2H-8,4-(metheno)pyrazolo[4,3-h][2,5,11]benzoxadiazacyclotetradecine-3-carbonitrile] | 10.2 nM | 296 nM | 1.2 nM | 4.78 nM
CC1Cc2cc(cnc2N)-c2c(nn(C)c2C#N)CN(C)C(=O)c2ccc(F)cc21 (single isomer, unassigned) [Example 63, 7-amino-12-fluoro-2,10,16-trimethyl-15-oxo-2,9,10,15,16,17-hexahydro-8,4-(metheno)pyrazolo[3,4-d][2,8]benzodiazacyclotetradecine-3-carbonitrile] | 0.13 nM | 8.7 nM | 0.12 nM | 1.95 nM
CC1Cc2cc(cnc2N)-c2c(nn(C)c2C#N)CN(C)C(=O)c2ccc(F)cc21 (single isomer, unassigned) [Example 64, 7-amino-12-fluoro-2,10,16-trimethyl-15-oxo-2,9,10,15,16,17-hexahydro-8,4-(metheno)pyrazolo[3,4-d][2,8]benzodiazacyclotetradecine-3-carbonitrile] | 33.3 nM | 1190 nM | 34.4 nM | 407 nM
COc1nn(C)c2c1-c1cnc(N)c(c1)OC(C)c1cccnc1C(=O)N(C)C2 (single isomer, unassigned) [Example 65, 7-amino-3-methoxy-1,10,16-trimethyl-16,17-dihydro-1H-8,4-(metheno)-pyrazolo[4,3-g]pyrido[2,3-l][1,4,10]oxadiazacyclotetradecin-15(10H)-one] | 9.8 nM | 313 nM | 0.88 nM | 9.36 nM
CC1Oc2cc(F)ccc2C(=O)N(C)Cc2nn(C)c(C#N)c2-c2cnc(N)c1c2 (single isomer, unassigned) [Example 76, 7-amino-12-fluoro-2,9,16-trimethyl-15-oxo-2,15,16,17-tetrahydro-9H-8,4-(metheno)pyrazolo[4,3-h][1,5,11]benzoxadiazacyclotetradecine-3-carbonitrile] | 1.9 nM | 109 nM | 3.1 nM | 95.6 nM
CC1Oc2cc(F)ccc2C(=O)N(C)Cc2nn(C)c(C#N)c2-c2cnc(N)c1c2 (single isomer, unassigned) [Example 77, 7-amino-12-fluoro-2,9,16-trimethyl-15-oxo-2,15,16,17-tetrahydro-9H-8,4-(metheno)pyrazolo[4,3-h][1,5,11]benzoxadiazacyclotetradecine-3-carbonitrile] | 45.8 nM | 3320 nM | 75 nM | 3390 nM
CC1c2nn(C)c(C#N)c2-c2cnc(N)c(n2)OCc2cc(F)ccc2C(=O)N1C (single isomer, unassigned) [Example 79, 7-amino-12-fluoro-2,16,17-trimethyl-15-oxo-10,15,16,17-tetrahydro-2H-8,4-(azeno)pyrazolo[4,3-h][2,5,11]benzoxadiazacyclotetradecine-3-carbonitrile] | 2.9 nM | 180 nM | 1.18 nM | 42.8 nM
CN1Cc2nn(C)c(C#N)c2-c2cnc(N)c(c2)OC(CF)c2cc(F)ccc2C1=O (single isomer, unassigned) [Example 85, 7-amino-12-fluoro-10-(fluoromethyl)-2,16-dimethyl-15-oxo-10,15,16,17-tetrahydro-2H-8,4-(metheno)pyrazolo[4,3-h][2,5,11]benzoxadiazacyclotetradecine-3-carbonitrile] | 0.13 nM | 6.72 nM | 0.07 nM | 0.55 nM
COc1nn(C)c2c1-c1cnc(N)c(c1)OC(CF)c1cc(F)ccc1C(=O)N(C)C2 (single isomer, unassigned) [Example 86, 7-amino-12-fluoro-10-(fluoromethyl)-3-methoxy-1,16-dimethyl-16,17-dihydro-1H-8,4-(metheno)pyrazolo[4,3-h][2,5,11]benzoxadiazacyclotetradecin-15(10H)-one] | 0.1 nM | 2.57 nM | < 0.2 nM | 0.45 nM
CC1Oc2nc(cnc2N)-c2c(nn(C)c2C#N)COCc2ccc(F)cc21 (single isomer, unassigned) [Example 105, 7-amino-12-fluoro-2,10-dimethyl-2,10,15,17-tetrahydro-8,4-(azeno)pyrazolo[4,3-h][2,11,5]benzodioxazacyclotetradecine-3-carbonitrile] | 16.7 nM | 642 nM | 3 nM | 115 nM
CC1Oc2nc(cnc2N)-c2c(nn(C)c2C#N)Cn2ccnc2-c2ccc(F)cc21 (single isomer, unassigned) [Example 108, 8-amino-3-fluoro-5,13-dimethyl-13,15-dihydro-5H-7,11-(azeno)imidazo[1,2-k]pyrazolo[4,3-h][2,5,11]benzoxadiazacyclotetradecine-12-carbonitrile] | < 0.05 nM | 0.5 nM | < 0.06 nM | 0.068 nM
CC1Oc2nc(cnc2N)-c2c(nn(C)c2C#N)Cn2ccnc2-c2ccc(F)cc21 (single isomer, unassigned) [Example 109, 8-amino-3-fluoro-5,13-dimethyl-13,15-dihydro-5H-7,11-(azeno)imidazo[1,2-k]pyrazolo[4,3-h][2,5,11]benzoxadiazacyclotetradecine-12-carbonitrile] | 4.7 nM | 55.6 nM | 8.1 nM | 11 nM
COc1nn(C)c2c1-c1cnc(N)c(n1)OCc1cc(F)ccc1C(=O)N(C)C2C (single isomer, unassigned) [Example 122, 7-amino-12-fluoro-3-methoxy-1,16,17-trimethyl-16,17-dihydro-1H-8,4-(azeno)pyrazolo[4,3-h][2,5,11]benzoxadiazacyclotetradecin-15(10H)-one] | 0.7 nM | 52.3 nM | 0.27 nM | 9.27 nM
COc1nn(C)c2c1-c1cnc(N)c(n1)OCc1cc(F)ccc1C(=O)N(C)C2C (single isomer, unassigned) [Example 123, 7-amino-12-fluoro-3-methoxy-1,16,17-trimethyl-16,17-dihydro-1H-8,4-(azeno)pyrazolo[4,3-h][2,5,11]benzoxadiazacyclotetradecin-15(10H)-one] | 333 nM | > 10000 nM | 205 nM | 4790 nM
CN1Cc2c(c(C#N)nn2C)-c2cnc(N)c(n2)OC(CF)c2ccccc2C1=O (single isomer, unassigned) [Example 127] | 0.52 nM | 65 nM | 0.099 nM | 2.5 nM
COc1snc2c1-c1cnc(N)c(c1)O[C@H](C)c1cc(F)ccc1C(=O)N(C)C2 [Example 3, (10R)-7-amino-12-fluoro-3-methoxy-10,16-dimethyl-16,17-dihydro-8,4-(metheno)isothiazolo[4,3-h][2,5,11]benzoxadiazacyclotetradecin-15(10H)-one] | 0.2 nM | 22.2 nM | < 0.2 nM | 0.99 nM
CN1Cc2nn(C)c(C#N)c2-c2cnc(N)c(c2)OCc2cc(F)ccc2C1=O [Example 4, 7-amino-12-fluoro-2,16-dimethyl-15-oxo-10,15,16,17-tetrahydro-2H-8,4-(metheno)pyrazolo[4,3-h][2,5,11]benzoxadiazacyclotetradecine-3-carbonitrile] | 1.2 nM | 184 nM | < 0.2 nM | 28.1 nM
CN1Cc2ccc(S(C)(=O)=O)cc2-c2cnc(N)c(c2)OCc2cc(F)ccc2C1=O [Example 5, 8-amino-3-fluoro-17-methyl-13-(methylsulfonyl)-16,17-dihydro-7,11-(metheno)dibenzo[g,l][1,4,10]oxadiazacyclotetradecin-18(5H)-one] | 3.4 nM | 156 nM | 0.34 nM | 12.1 nM
CC1Oc2cc(cnc2N)-c2ccccc2CN(C)C(=O)c2ccc(F)cc21 (stereo not drawn) [Example 8, 8-amino-3-fluoro-5,17-dimethyl-16,17-dihydro-7,11-(metheno)dibenzo[g,l]-[1,4,10]-oxadiazacyclotetradecin-18(5H)-one] | 10 nM | 680 nM | 0.9 nM | 12.1 nM
CCn1ncc2c1-c1cnc(N)c(c1)O[C@H](C)c1cc(F)ccc1C(=O)N(C)C2 [Example 27, (10R)-7-amino-3-ethyl-12-fluoro-10,16-dimethyl-16,17-dihydro-3H-8,4-(metheno)pyrazolo[3,4-h][2,5,11]benzoxadiazacyclotetradecin-15(10H)-one] | 5.3 nM | 157 nM | 0.38 nM | 9.15 nM
